The source of these data is patent publication US11584763B2, “Chromenopyridine derivatives as phosphatidylinositol phosphate kinase inhibitors” (HIBERCELL, INC., priority 2017, dated 2023).

The term IC50 denotes the concentration at which inhibition is half-maximal.

Common to all, as to assay type: biochemical
The target of assay [1] is T1, PIP4K 2A (Homo sapiens, UniProt P48426).
T1 sequence (P48426 1-406): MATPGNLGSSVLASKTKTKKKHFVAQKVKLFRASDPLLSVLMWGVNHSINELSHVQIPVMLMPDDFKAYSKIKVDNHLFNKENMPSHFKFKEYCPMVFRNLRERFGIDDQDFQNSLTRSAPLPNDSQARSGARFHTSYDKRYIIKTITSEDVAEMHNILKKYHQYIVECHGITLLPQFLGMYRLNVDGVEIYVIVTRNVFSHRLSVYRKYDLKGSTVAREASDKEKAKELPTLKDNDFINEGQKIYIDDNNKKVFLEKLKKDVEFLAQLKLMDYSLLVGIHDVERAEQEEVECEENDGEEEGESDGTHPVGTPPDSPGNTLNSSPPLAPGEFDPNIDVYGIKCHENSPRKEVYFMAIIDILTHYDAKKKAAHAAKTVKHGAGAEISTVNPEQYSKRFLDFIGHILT
Put plainly: Kinase Assay PIP4K2 A (PIP4KtypeIIA inhibition assay). The arrangement: made in house; host or cells: E. coli. To be noted: compounds listed under IC50 bin headings. An outline of the steps: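 GST-tagged enzyme from E. coli at 0.5 nM final was preincubated with compound for 1 h at 27 C, then reacted with 10 uM ATP, 80 uM PI5P and DOPE carrier in 50 mM HEPES pH 7.3, 5% DMSO. After 1 h, ADP was measured by ADP-Glo luminescence against a calibration curve. IC50 was fitted from % residual activity.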

The target in assay [2] is T1, PIP4K 2A. Put plainly: ADP-glo kinase assay PIP4K 2A. Details: 4 nM PIP4K2A (full length protein, SignalChem); purchased SignalChem. To be noted: compounds listed under IC50 bin headings. An outline of the steps:
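Full-length PIP4K2A was pre-incubated 15 min at RT with compound in 20 mM MOPS pH 7.2, 25 mM MgCl2, 0.005% Tween 20. The enzyme mix held 4 nM kinase and 100 μM PI(5)P diC8, and ATP was added from a 60 μM solution. After 1 h at RT, ADP-Glo luminescence gave % inhibition versus DMSO, fitted to IC50 over 10 threefold dilutions.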
A general note: ADP-Glo first removes unused ATP, then detects ADP through luciferase.

In another assay the target is T2, PIP4K2B (Homo sapiens, UniProt P78356).
T2 construct: made in house; host or cells: E. coli
T2 sequence (P78356 1-416): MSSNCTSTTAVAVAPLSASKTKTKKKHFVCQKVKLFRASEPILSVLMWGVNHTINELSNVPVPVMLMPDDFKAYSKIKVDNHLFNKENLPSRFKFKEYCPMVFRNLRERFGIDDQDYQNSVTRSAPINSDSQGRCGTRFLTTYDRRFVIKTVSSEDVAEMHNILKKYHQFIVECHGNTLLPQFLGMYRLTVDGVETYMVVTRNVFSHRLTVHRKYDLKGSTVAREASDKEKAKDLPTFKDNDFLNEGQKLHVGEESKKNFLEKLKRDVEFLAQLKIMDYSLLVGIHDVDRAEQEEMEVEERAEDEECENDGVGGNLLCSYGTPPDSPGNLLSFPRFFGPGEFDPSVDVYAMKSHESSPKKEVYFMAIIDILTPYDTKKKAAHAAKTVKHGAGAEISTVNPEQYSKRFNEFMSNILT
As to the kind of experiment: Trans-FI P kinase assay PIP4K2B (PIP4KtypeIIB inhibition assay). To be noted: compounds listed under IC50 bin headings; 100 uM GTP; read-out: Trans-FI P kinase assays: PIP4K2B IC50. An outline of the steps: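 GST-tagged human PIP4K2B (5 nM, E. coli-expressed) preincubated 1 h at 27 C with compound (top 4.8 uM, 5% DMSO), then reacted 2 h with 100 uM GTP and 80 uM PI5P/DOPE vesicles in HEPES pH 7.3, MgCl2, Triton X-100. GDP detected by Transcreener FI fluorescence via calibration curve; IC50 from % activity vs log[inhibitor].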

With `CC1Oc2cc(N3CCCC3=O)ccc2-c2cnc(Nc3cnc4cccnc4c3)cc21` (stereo not drawn) [Example 64, 1-(3-((1,5-naphthyridin-3-yl)amino)-5-methyl-5H-chromeno[4,3-c]pyridin-8-yl)pyrrolidin-2-one], the results for the half-inhibitory concentration (IC50) against PIP4K 2A [1], at PIP4K 2A [2] and at PIP4K2B were 1 to 10 nM, 10 to 100 nM and 100 to 1000 nM, respectively.
In the case of `CC1Oc2cc(N3CCCC3=O)ccc2-c2cnc(Nc3cnc4scnc4c3)cc21` (stereo not drawn) [Example 65, 1-(5-methyl-3-(thiazolo[5,4-b]pyridin-6-ylamino)-5H-chromeno[4,3-c]pyridin-8-yl)pyrrolidin-2-one], the results for the 50% inhibitory concentration (IC50) against PIP4K 2A [1], at PIP4K 2A [2] and on PIP4K2B were 1 to 10 nM, 10 to 100 nM and 100 to 1000 nM, respectively.
Take `CC1Oc2cc(C(=O)N(C)C)ccc2-c2cnc(Nc3cnc4c(c3)N(C(=O)C(C)(C)C)CCO4)cc21` (stereo not drawn) [Example 67, N,N,5-trimethyl-3-((1-pivaloyl-2,3-dihydro-1H-pyrido[2,3-b][1,4]oxazin-7-yl)amino)-5H-chromeno[4,3-c]pyridine-8-carboxamide]: the results for the IC50 against PIP4K 2A [1], at PIP4K 2A [2] and on PIP4K2B were no more than 1 nM, no more than 1 nM and 1 to 10 nM, respectively.
Consider `CC1Oc2cc(C(=O)N(C)C)ccc2-c2cnc(Nc3cnc4c(c3)N(C(=O)C3CC3)CCO4)cc21` (stereo not drawn) [Example 68, 3-((1-(cyclopropanecarbonyl)-2,3-dihydro-1H-pyrido[2,3-b][1,4]oxazin-7-yl)amino)-N,N,5-trimethyl-5H-chromeno[4,3-c]pyridine-8-carboxamide], for which the figures for the IC50 on PIP4K 2A [1], against PIP4K 2A [2] and on PIP4K2B were no more than 1 nM, no more than 1 nM and 1 to 10 nM, respectively.
For `COC(=O)N1CCOc2ncc(Nc3cc4c(cn3)-c3ccc(C(=O)N(C)C)cc3OC4C)cc21` (stereo not drawn) [Example 69, methyl 7-((8-(dimethylcarbamoyl)-5-methyl-5H-chromeno[4,3-c]pyridin-3-yl)amino)-2,3-dihydro-1H-pyrido[2,3-b][1,4]oxazine-1-carboxylate], the IC50 on PIP4K 2A [1] was no more than 1 nM; at PIP4K 2A [2] it was no more than 1 nM; on PIP4K2B, 1 to 10 nM.
As for `CC(=O)N1CCOc2ncc(Nc3cc4c(cn3)-c3ccc(C(=O)N(C)C)cc3OC4C)cc21` (stereo not drawn) [Example 70, 3-((1-acetyl-2,3-dihydro-1H-pyrido[2,3-b][1,4]oxazin-7-yl)amino)-N,N,5-trimethyl-5H-chromeno[4,3-c]pyridine-8-carboxamide], the values for the concentration for half-maximal inhibition (IC50) on PIP4K 2A [1], on PIP4K 2A [2] and on PIP4K2B were no more than 1 nM, no more than 1 nM and 1 to 10 nM, respectively.
Consider `CC1Oc2cc(C(=O)N(C)C)ccc2-c2cnc(Nc3cnc4c(c3)N(S(C)(=O)=O)CCO4)cc21` (stereo not drawn) [Example 71, N,N,5-trimethyl-3-((1-(methylsulfonyl)-2,3-dihydro-1H-pyrido[2,3-b][1,4]oxazin-7-yl)amino)-5H-chromeno[4,3-c]pyridine-8-carboxamide], for which the values for the IC50 on PIP4K 2A [1], against PIP4K 2A [2] and at PIP4K2B were no more than 1 nM, no more than 1 nM and 1 to 10 nM, respectively.
With `CC1Oc2cc(C(=O)N(C)C)ccc2-c2cnc(Nc3cnc4c(c3)N(S(=O)(=O)C3CC3)CCO4)cc21` (stereo not drawn) [Example 72, 3-((1-(cyclopropylsulfonyl)-2,3-dihydro-1H-pyrido[2,3-b][1,4]oxazin-7-yl)amino)-N,N,5-trimethyl-5H-chromeno[4,3-c]pyridine-8-carboxamide], the values for the IC50 against PIP4K 2A [1], against PIP4K 2A [2] and at PIP4K2B were no more than 1 nM, 1 to 10 nM and 1 to 10 nM, respectively.
`CC1(C)Oc2cc(N3CCCC3=O)ccc2-c2cnc(Nc3cnc4c(c3)N3C(=O)CC[C@H]3CO4)cc21` [Example 73, (S)-2-((5,5-dimethyl-8-(2-oxopyrrolidin-1-yl)-5H-chromeno[4,3-c]pyridin-3-yl)amino)-6,6a,7,8-tetrahydro-9H-pyrido[2,3-b]pyrrolo[1,2-d][1,4]oxazin-9-one]: the IC50 against PIP4K 2A [1] was no more than 1 nM; on PIP4K 2A [2], no more than 1 nM; at PIP4K2B, 1 to 10 nM.
As to `O=C1CCCN1c1ccc2c(c1)OCc1cc(Nc3cnc4c(c3)N(S(=O)(=O)C3CC3)CCO4)ncc1-2` [Example 74, 1-(3-((1-(cyclopropylsulfonyl)-2,3-dihydro-1H-pyrido[2,3-b][1,4]oxazin-7-yl)amino)-5H-chromeno[4,3-c]pyridin-8-yl)pyrrolidin-2-one], the IC50 was no more than 1 nM at PIP4K 2A [1], 1 to 10 nM at PIP4K 2A [2] and 1 to 10 nM at PIP4K2B.
As for `O=C1CCCN1c1ccc2c(c1)OCc1cc(Nc3cnc4c(c3)N3C(=O)CC[C@H]3CO4)ncc1-2` [Example 75, (S)-2-((8-(2-oxopyrrolidin-1-yl)-5H-chromeno[4,3-c]pyridin-3-yl)amino)-6,6a,7,8-tetrahydro-9H-pyrido[2,3-b]pyrrolo[1,2-d][1,4]oxazin-9-one], the IC50 on PIP4K 2A [1] was no more than 1 nM; against PIP4K 2A [2], no more than 1 nM; at PIP4K2B, 1 to 10 nM.
Take `O=C1CCCN1c1ccc2c(c1)OCc1cc(Nc3cnc4c(c3)N(C(=O)C3CC3)CCO4)ncc1-2` [Example 76, 1-(3-((1-(cyclopropanecarbonyl)-2,3-dihydro-1H-pyrido[2,3-b][1,4]oxazin-7-yl)amino)-5H-chromeno[4,3-c]pyridin-8-yl)pyrrolidin-2-one]: the figures for the IC50 against PIP4K 2A [1], on PIP4K 2A [2] and at PIP4K2B were no more than 1 nM, no more than 1 nM and 1 to 10 nM, respectively.
On to `COC(=O)N1CCOc2ncc(Nc3cc4c(cn3)-c3ccc(N5CCCC5=O)cc3OC4)cc21` [Example 77, methyl 7-((8-(2-oxopyrrolidin-1-yl)-5H-chromeno[4,3-c]pyridin-3-yl)amino)-2,3-dihydro-1H-pyrido[2,3-b][1,4]oxazine-1-carboxylate], for which the IC50 at PIP4K 2A [1] was no more than 1 nM; at PIP4K 2A [2], no more than 1 nM; on PIP4K2B it was 1 to 10 nM.
On to `CS(=O)(=O)N1CCOc2ncc(Nc3cc4c(cn3)-c3ccc(N5CCCC5=O)cc3OC4)cc21` [Example 78, 1-(3-((1-(methylsulfonyl)-2,3-dihydro-1H-pyrido[2,3-b][1,4]oxazin-7-yl)amino)-5H-chromeno[4,3-c]pyridin-8-yl)pyrrolidin-2-one], for which the values for the 50% inhibitory concentration (IC50) at PIP4K 2A [1], on PIP4K 2A [2] and at PIP4K2B were no more than 1 nM, no more than 1 nM and 1 to 10 nM, respectively.
As for `CC(C)S(=O)(=O)N1CCOc2ncc(Nc3cc4c(cn3)-c3ccc(N5CCCC5=O)cc3OC4)cc21` [Example 79, 1-(3-((1-(isopropylsulfonyl)-2,3-dihydro-1H-pyrido[2,3-b][1,4]oxazin-7-yl)amino)-5H-chromeno[4,3-c]pyridin-8-yl)pyrrolidin-2-one], the half-maximal inhibitory concentration (IC50) at PIP4K 2A [1] is no more than 1 nM; against PIP4K 2A [2] it was 1 to 10 nM; at PIP4K2B, 10 to 100 nM.
`CC1Oc2cc(N3CCCC3=O)ccc2-c2cnc(Nc3cncnc3)cc21` (stereo not drawn) [Example 80, 1-(5-methyl-3-(pyrimidin-5-ylamino)-5H-chromeno[4,3-c]pyridin-8-yl)pyrrolidin-2-one]: the IC50 was 10 to 100 nM against PIP4K 2A [1], 10 to 100 nM on PIP4K 2A [2] and 100 to 1000 nM at PIP4K2B.
As to `CC1Oc2cc(N3CCCC3=O)ccc2-c2cnc(Nc3cncc(C(F)(F)F)c3)cc21` (stereo not drawn) [Example 81, 1-(5-methyl-3-((5-(trifluoromethyl)pyridin-3-yl)amino)-5H-chromeno[4,3-c]pyridin-8-yl)pyrrolidin-2-one], the 50% inhibitory concentration (IC50) against PIP4K 2A [1] was 10 to 100 nM; on PIP4K 2A [2], 100 to 1000 nM; on PIP4K2B, greater than 1000 nM.
On to `CC1Oc2cc(N3CCCC3=O)ccc2-c2cnc(Nc3cnc4c(c3)N(C(=O)C3CC3)CCO4)cc21` (stereo not drawn) [Example 82, 1-(3-((1-(cyclopropanecarbonyl)-2,3-dihydro-1H-pyrido[2,3-b][1,4]oxazin-7-yl)amino)-5-methyl-5H-chromeno[4,3-c]pyridin-8-yl)pyrrolidin-2-one], for which the IC50 against PIP4K 2A [1] was no more than 1 nM; against PIP4K 2A [2], no more than 1 nM; on PIP4K2B, 1 to 10 nM.
